Test results as given in article PMC7329984, “A Broad Temperature Active Lipase Purified From a Psychrotrophic Bacterium of Sikkim Himalaya With Potential Application in Detergent Formulation” (Frontiers in Bioengineering and Biotechnology, 2020).

How the values were obtained:
ERMR1:04 lipase = test system: T1, ERMR1:04 lipase; assay: p-nitrophenol release at […] nm; Lineweaver-Burk plot; assay type: biochemical, Chryseobacterium polytrichastri; conditions: 50 mM Tris pH 8, 37°C; 0.025-0.3 mM substrate
T1 construct: gene alpha/beta hydrolase; native extracellular enzyme purified from culture supernatant (ammonium sulfate, Sephadex G-100, Octyl-Sepharose); gene not firmly identified: MALDI top hit alpha/beta hydrolase of Solibacillus sp

[1] = target: extracellular lipase of Chryseobacterium polytrichastri ERMR1:04 (Chryseobacterium polytrichastri ERMR1:04 (endogenous, secreted)); assay: native gel or EMSA; 10% native PAGE of the Octyl-Sepharose purified lipase (250 kDa band) compared with 12% SDS-PAGE (39.8 kDa band)

Km (ERMR1:04 lipase) [µM]	stoichiometry N [1]	Molecule
104		CCCCCCCCCCCCCCCC(=O)Oc1ccc([N+](=O)[O-])cc1 [pNPP, p-nitrophenyl palmitate]
	6	extracellular lipase of Chryseobacterium polytrichastri ERMR1:04 (enzyme)
